Entries after “also recorded” stand apart in the source; their conditions may differ.
How the values were obtained:
[1] = tested on: AND T cells; experiment: ICAM-YFP distribution and T cell contact with supported membrane; type: cell-based, mouse; conditions: 1 h pretreatment
[2] = tested on: AND T cells; experiment: ZAP70-EGFP recruitment and cell morphology; type: cell-based, mouse; conditions: for ZAP70 recruitment to plasma membrane / cell morphology: T102S/MHC well below, MCC/MHC above NFAT threshold; for linear ZAP70-EGFP trajectories: ∼5-min window, TIRF
[3] = tested on: 5c.c7 TCR; experiment: single-molecule pMHC:TCR dwell time in live T cells; type: binding, mouse; conditions: almost four orders of magnitude of pMHC density
[4] = tested on: AND T cells; experiment: NFAT translocation assay; type: cell-based, mouse; conditions: MCC/MHC:AND; unlabeled CD80 on bilayer (200 molecules per micrometer)
[5] = molecular target: T1, CD28 (Mus musculus, UniProt P31041); experiment: single-molecule CD80:CD28 binding in AND T cells; conditions: 3-s time lapse, ∼10 cells, one experiment
T1 sequence (P31041 20-218): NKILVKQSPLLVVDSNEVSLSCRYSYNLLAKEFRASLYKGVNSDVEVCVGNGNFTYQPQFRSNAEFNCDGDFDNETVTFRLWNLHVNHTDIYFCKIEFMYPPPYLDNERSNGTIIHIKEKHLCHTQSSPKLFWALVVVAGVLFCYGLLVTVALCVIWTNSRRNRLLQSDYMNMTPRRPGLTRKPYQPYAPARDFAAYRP

[6] = molecular target: CD28; conditions: CD80:CD28 solution affinity, comparable with pMHC:TCR; ref [25], [32]–[34]; cited from earlier work

Molecule	ZAP70 recruitment to plasma membrane [2]	cell morphology [2]	linear ZAP70-EGFP trajectories [2]	further results
COC(=O)[C@H](CC(C)C)NC(=O)c1ccc(NC[C@@H](N)CS)cc1-c1cccc2ccccc12 [GGTI-298]	–	–	–	ICAM-YFP distribution [1]: relatively even ICAM-YFP distribution across the T cell; probability of T cell landing on supported membrane [1]: decreased the probability of the T cell’s landing on the supported membrane
ANERADLIAYLKQASK [T102S]	low levels	asymmetric, crawling morphology	asymmetric	–
ANERADLIAYLKQATK [MCC, moth cytochrome c (amino acids 88–103)]	enhanced ZAP70 recruitment	stationary, centrosymmetric cell morphology	centrosymmetric	〈τoff〉 over pMHC density titration [3]: remains constant
CD80: decahistidine-tagged CD80 protein expressed in High Five cells; costimulatory ligand of CD28	–	–	–	effect of CD80 on NFAT threshold density, MCC [4]: lowers the NFAT threshold density; CD80:CD28 〈τoff〉 versus pMHC density [5]: constant as a function of pMHC density; also recorded: constant with respect to pMHC density; solution affinity [6]: low micromolar range

Source: publication PMC5699024 (Proceedings of the National Academy of Sciences of the …, 2017)
